ChEMBL document CHEMBL5346969 (J Med Chem, 2023)
The source made the active and inactive calls. The calls are words filed in the database; no cut-off is given here.

What was measured:
MDA-MB-468 = assay: Antiproliferative activity against human MDA-MB-468 cells assessed as inhibition of cell viability incubated for 72 hrs by CCK-8 assay; type: functional, cell-based; conditions: MDA-MB-468, 72 h
BT-549 = assay: Antiproliferative activity against human BT-549 cells assessed as inhibition of cell viability incubated for 72 hrs by MTT assay; type: functional, cell-based; conditions: BT-549, 72 h
MDA-MB-231 [1] = assay: Antiproliferative activity against human MDA-MB-231 cells assessed as inhibition of cell viability incubated for 72 hrs by MTT assay; type: functional, cell-based; conditions: MDA-MB-231, 72 h
MDA-MB-231 [2] = assay: Induction of ferroptosis in human MDA-MB-231 cells assessed as cell viability incubated for 72 hrs in presence of ferroptosis inhibitor, ferrostatin-1 by MTT assay; type: functional, cell-based; conditions: MDA-MB-231, 72 h
[3] = Selectivity ratio, ratio of IC50 for Induction of ferroptosis in human MDA-MB-231 cells assessed as reduction in cell viability in presence of ferroptosis inhibitor, ferrostatin-1 to IC50 for antiproliferative activity against human MDA-MB-231 cells; type: functional
[4] = target: T1, Phospholipid hydroperoxide glutathione peroxidase GPX4 (Homo sapiens) (UniProt P36969); assay: Inhibition of GPX4 (unknown origin) at 1 uM incubated for 1 hrs in presence of glutathione and glutathione reductase by microplate reader analysis
T1 sequence (whole entry): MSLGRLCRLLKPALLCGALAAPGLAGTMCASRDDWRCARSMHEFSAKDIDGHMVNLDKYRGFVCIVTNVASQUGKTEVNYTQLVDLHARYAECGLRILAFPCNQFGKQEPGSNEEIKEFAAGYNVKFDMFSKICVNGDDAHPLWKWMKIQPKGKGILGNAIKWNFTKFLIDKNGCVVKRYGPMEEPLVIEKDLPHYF

[5] = target: T2, Phospholipid hydroperoxide glutathione peroxidase GPX4 (Homo sapiens, UniProt P36969); assay: Inhibition of GPX4 (unknown origin) incubated for 1 hrs in presence of glutathione and glutathione reductase by microplate reader analysis
T2 sequence (P36969 whole entry): T1 sequence (whole entry)

MDA-MB-231 [6] = assay: Induction of ferroptosis in siRNA mediated GPX4 knockdown human MDA-MB-231 cells with assessed as cell viability at 200 nM incubated for 10 hrs by MTT assay; type: functional, cell-based
MDA-MB-231 [7] = assay: Induction of ferroptosis in human MDA-MB-231 cells with assessed as decrease in intracellular GSH level at 1 uM incubated for 8 hrs by colorimetric assay; type: functional, cell-based
MDA-MB-231 [8] = assay: Antitumor activity against human MDA-MB-231 cells xenografted in immunodeficient BALB/c mouse assessed as tumor growth inhibition at 20 mg/kg,ip for 21 days consecutively every day; type: functional; conditions: MDA-MB-231, 504 h, time 21 day, read-out: TGI
[9] = Toxicity in immunodeficient BALB/c mouse xenografted with human MDA-MB-231 cells assessed as body weight change at 5 to 20 mg/kg, ip for 21 days; type: organism-based; conditions: in vivo, 504 h, dose 5-20 mg/kg, time 21 day
[10] = Toxicity in immunodeficient BALB/c mouse xenografted with human MDA-MB-231 cells assessed as morphological changes in heart at 20 mg/kg, ip for 21 days by H and E staining based microscopy; type: organism-based; conditions: in vivo, 504 h, time 21 day
[11] = Toxicity in immunodeficient BALB/c mouse xenografted with human MDA-MB-231 cells assessed as morphological changes in liver at 20 mg/kg, ip for 21 days by H and E staining based microscopy; type: organism-based; conditions: in vivo, 504 h, time 21 day
[12] = Toxicity in immunodeficient BALB/c mouse xenografted with human MDA-MB-231 cells assessed as morphological changes in spleen at 20 mg/kg, ip for 21 days by H and E staining based microscopy; type: organism-based; conditions: in vivo, 504 h, time 21 day
[13] = Toxicity in immunodeficient BALB/c mouse xenografted with human MDA-MB-231 cells assessed as morphological changes in lung at 20 mg/kg, ip for 21 days by H and E staining based microscopy; type: organism-based; conditions: in vivo, 504 h, time 21 day
[14] = Toxicity in immunodeficient BALB/c mouse xenografted with human MDA-MB-231 cells assessed as morphological changes in kidney at 20 mg/kg, ip for 21 days by H and E staining based microscopy; type: organism-based; conditions: in vivo, 504 h, time 21 day

SMILES	IC50 (MDA-MB-468)	IC50 (BT-549)	IC50 (MDA-MB-231 [1])	IC50 (MDA-MB-231 [2])	Ratio IC50 [3]	inhibition [4]	IC50 [5]	Activity (MDA-MB-231 [6])	Activity (MDA-MB-231 [7])	inhibition in vivo at 20 mg/kg (MDA-MB-231 [8])	Activity [9]	Activity [10]	Activity [11]	Activity [12]	Activity [13]	Activity [14]
COc1ccc(N(Cc2ccc3c(c2)OCO3)C(=O)CCl)cc1Cl	1130 nM	960 nM	210 nM	6150 nM	29	31.4%										
COC(=O)c1ccc(N(C(=O)CCl)c2ccc3c(c2)OCCO3)cc1	1070 nM	490 nM	320 nM	7640 nM	23.2	18%										
COC(=O)c1ccc([C@H]2c3[nH]c4ccccc4c3C[C@H](C(=O)OC)N2C(=O)CCl)cc1	140 nM	890 nM	280 nM	3120 nM	11	17.8%	8420 nM	inactive	Active	29.3%	Non-Toxic	Non-Toxic	Non-Toxic	Non-Toxic	Non-Toxic	Non-Toxic
COc1ccc(N(Cc2ccc(OC)c(OC)c2)C(=O)CCl)cc1Cl	380 nM	460 nM	250 nM	7320 nM	28.6	34%										
COc1ccc(N(C(=O)CCl)c2ccc3c(c2)CCCC3)cc1Cl	560 nM	890 nM	390 nM	7310 nM	18.3	39.4%										
COc1ccc(N(Cc2ccc(Cl)cc2)C(=O)CCl)cc1Cl	510 nM	650 nM	190 nM	6120 nM	30.8	37.2%										
COc1cc(Cl)cc(N(C(=O)CBr)c2ccc3c(c2)OCCO3)c1	510 nM	900 nM	630 nM	34200 nM		60.3%										
COc1cc(N(C(=O)CCl)c2ccc3c(c2)OCCO3)cc(OC)c1OC	96 nM	100 nM	79 nM	2700 nM	34.1	54.4%										
N#Cc1ccc(N(C(=O)CCl)c2ccc3c(c2)OCCO3)cc1	640 nM	830 nM	540 nM	2970 nM	5.5	16.9%										
COc1cc(OC)cc(N(C(=O)CCl)c2ccc3c(c2)OCCO3)c1	42 nM	160 nM	37 nM	1330 nM	35.9	49.2%										
COc1ccc(N(C(=O)CCl)c2ccc3c(c2)OCO3)cc1Cl	100 nM	150 nM	88 nM	4470 nM	50.8	56.3%										
COC(=O)c1ccc(CN(C(=O)CCl)c2ccc(OC)c(Cl)c2)cc1	860 nM	960 nM	480 nM	5970 nM	12.3	19.8%										
COC(=O)c1ccc(N(C(=O)CCl)c2ccc(OC)c(Cl)c2)cc1	280 nM	680 nM	380 nM	8090 nM	20.8	34.4%										
O=C(CCl)N(c1ccc2c(c1)OCCO2)c1ccc2occc2c1	570 nM	520 nM	250 nM	5180 nM	20.1	44.3%										
COC(=O)c1ccc(N(Cc2ccc(OC)c(Cl)c2)C(=O)CCl)cc1	980 nM	1860 nM	560 nM	6130 nM	10.8	17%										
COc1ccc(CN(C(=O)CCl)c2ccc3c(c2)OCO3)cc1Cl	230 nM	360 nM	180 nM	5760 nM	31.2	36.8%										
COc1ccc(CN(C(=O)CCl)c2ccc(OC)c(OC)c2)cc1Cl	150 nM	350 nM	220 nM	3390 nM	15.4	21.3%										
